The values below come from patent US9630957B2, “2,3-butanediamide epoxide compound and preparation method and use thereof” (Institute of Pharmacology and Toxicology Academy of …, priority 2014, dated 2017).

The structures appear in SMILES notation. ≈ marks a conversion by molar mass, not a printed value.

Series [1] has as its system Vero cells. Description: Cytotoxicity of the compounds for Vero cells (CPE observation, TC50). In kind it is cell-based. The following applies: no virus. On the procedure: (§1) 2. Sample treatment: the compounds of the present invention are dissolved in DMSO or diluent to prepare stock solution which is stored at −20° C. The stock solution is formulated to suitable incipient concentration with culture solution immediately before use, and then 3-fold diluted with the culture solution, 8 degrees of dilution each.
(§2) 4. Test Method: Vero cells are seeded into a 96-well culture plate, at 5% CO2, and cultured at 37° C. for 16 hours. The Vero cells are added with different dilutions of drugs, and the degree of cytopathic effect (CPE) in each group is observed. The half toxic concentration (TC50) of each sample for Vero cells is calculated. Vero cells are added with 100TCID50 enterovirus EV71 respectively, and the virus solution is discarded after adsorption at 37° C. for 1 hour, and then drugs with various degrees of dilution are added respectively. Virus control and cell control are set and incubated at 37° C. The degree of cytopathic effect (CPE) in each group is observed when the degree of cytopathic effect (CPE) of virus control group reaches 4+. The half inhibitory concentration (IC50) of each sample for enterovirus EV71 are calculated. Selectivity Index (SI) is calculated according to the following equation: SI=TC50/IC50.

Series [2] concerns enterovirus EV71 (BrCr strain). Description: Activity screening for anti-enterovirus EV71: inhibition of cytopathic effect in Vero cells. It counts as cell-based. The following applies: for IC50: 100TCID50, Vero cells, CPE read when virus control reaches 4+, read-out: IC50 (half inhibitory concentration for enterovirus EV71). The protocol: Test item: Activity screening of the compounds for anti-enterovirus EV71
Test principle: Vero cells are used as viral host. The inhibition of the compound of the invention on the degree of cytopathic effect of Vero cells caused by enterovirus virus EV71 is determined.
1. Virus strain: enterovirus EV71 (BrCr, American Type Culture Collection, ATCC)
as §1
3. Positive control drug: Pirodavir (LGM Pharma), which is a broad-spectrum anti-viral inhibitor.
as §2
(Protection from cytopathic effect is a common read-out in antiviral testing.)

As usually defined, the melting point is the temperature of the solid-liquid transition. For `O=C(Nc1nc2ccccc2s1)c1ccc(N(Cc2ccccc2)C(=O)[C@H]2O[C@@H]2C(=O)O)cc1` [Compound 38, (2S,3S)-3-((4-(benzo[d]thiazol-2-ylcarbamoyl)phenyl)(benzyl)carbamoyl)oxirane-2-carboxylic acid], the melting point lay in the range of 198.6 to 199.3 °C. The “TC50 (half toxic concentration for Vero cells)” value in series [1] was 115.47 µg/mL. In addition, the IC50 in series [2] is greater than 22.2 µg/mL.

As to `COc1ccc(NC(=O)[C@H]2O[C@@H]2C(=O)N(Cc2ccccc2)c2ccc(C(=O)Nc3nc4ccccc4s3)cc2)cc1OC` [Compound 39, (2S,3S)—N^2-(4-(benzo[d]thiazol-2-ylcarbamoyl)phenyl)-N^2-benzyl-N^3-(3,4-dimethoxyphenyl)-2,3-epoxybutanediamide], the melting point lay within 224.5 to 226 °C. Further, the “TC50 (half toxic concentration for Vero cells)” value in series [1] is 32.05 µg/mL. In addition, the IC50 in series [2] amounted to 4.28 µg/mL (≈ 7.03 µM). The “SI (Selectivity Index = TC50/IC50)” value in series [2] (Vero cells) is recorded as 7.49.

Take `O=C(Nc1nc2ccccc2s1)c1ccc(N(Cc2ccccc2)C(=O)[C@H]2O[C@@H]2C(=O)Nc2ccc(Cl)c(Cl)c2)cc1` [Compound 40, (2S,3S)—N^2-(4-(benzo[d]thiazol-2-ylcarbamoyl)phenyl)-N^2-benzyl-N^3-(3,4-dichlorophenyl)-2,3-epoxybutanediamide]: the melting point was in the range of 217.6 to 218.3 °C. For the same compound, in series [1], the “TC50 (half toxic concentration for Vero cells)” value came to 1.43 µg/mL. Besides, the IC50 in series [2] was greater than 0.82 µg/mL.

Compound `COC(=O)c1csc(NC(=O)[C@H]2O[C@@H]2C(=O)N(Cc2ccccc2)c2ccc(C(=O)Nc3nc4ccccc4s3)cc2)n1` [Compound 41, (2S,3S)—N^2-(4-(benzo[d]thiazol-2-ylcarbamoyl)phenyl)-N^2-benzyl-N^3-(4-methoxycarbonylthiazol-2-yl)-2,3-epoxybutanediamide] registered a melting point of 223.5 to 224.3 °C. In addition, the “TC50 (half toxic concentration for Vero cells)” value in series [1] is 1.43 µg/mL. For the same compound, the IC50 in series [2] was greater than 0.82 µg/mL.
